Patent US5380745A, “Medicinal composition” (Meiiji Seika Kaisha, Ltd., priority 1991, dated 1995)
Read-outs that look alike come from different tables or passages of the source.

Tests used:
parasites = conditions: rumenal animals such as cattle, sheep and goat; cited from earlier work
[1] = test system: cattle nematodes in the digestive tract; test: Anthelmintic effect on cattle nematodes in the digestive tract (EPG); format: in vivo; conditions: oral 25 mg PF1022 substance/kg/day for two days
Method: (§1) The medicinal composition of the present invention was administered to animals in an amount corresponding to a definite amount of PF1022 substance. The whole feces was collected everyday and the number of parasitic eggs per gram of the feces (EPG) were counted. Two weeks after the initiation of the administration, each animal was dissected and the number of parasites remaining in the intestine were counted.
(§2) The medicinal composition obtained in Example 1 was orally administered in a dose as corresponding to 25 mg of PF1022 substance/kg/day for two days. As a control, PF1022 substance alone was administered in the same manner as those described above. […] Each of the medicinal composition as shown in Table 4 was orally administered in a dose corresponding to 5 mg of PF1022 substance/kg/day for two days. As a control, PF1022 substance alone was orally administered in a dose of 25 mg/kg/day for two days.

[2] = Water solubility of PF1022 substance (elution into buffer, HPLC); format: physicochemical; conditions: aqueous buffer, 40 °C, 50 mg PF1022 substance in 50 ml, read-out: Concentration of PF1022 substance
Method: The compositions of Examples 1 to 9 and PF1022 substance alone, employed as a control, were tested. Each composition was weighed in a 100 ml-Erlenmeyer flask, in an amount corresponding to 50 mg of PF1022 substance and 50 ml of McDougall buffer or Clark Lubs buffer was added thereto. McDougall buffer is prepared by dissolving 7.43 g of sodium hydrogencarbonate, 7.0 g of disodium phosphate 12-hydrate, 0.34 g of sodium chloride, 0.43 g of potassium chloride, 0.10 g of magnesium chloride hexahydrate and 0.05 g of calcium chloride in 1,000 ml of water and saturating the mixture with carbon dioxide gas (pH 6.8). Clark Lubs buffer is prepared by adding 50 ml of 0.2N potassium chloride and 10.6 ml of 0.2N hydrochloric acid to 139.4 ml of water (pH 2.0). The mixture was shaken in a thermostat at 40 °±0.5° C. at a vibrational amplitude of 4 cm at 60 rpm to figure eight. Sampling was made with the lapse of time and the amount of the eluate was determined by high performance liquid chromatography.

[3] = PF1022 substance, in words, cited from earlier work
[4] = test system: sheep nematodes in the digestive tract; test: Anthelmintic effect on sheep nematodes in the digestive tract (EPG); format: in vivo; conditions: PF1022 substance alone oral 25 mg/kg/day for two days
Method: as §1, §2

[5] = test system: parasites in digestive tract of unigastric animals; conditions: used alone; unigastric animals such as fowl, dog, cat and swine; cited from earlier work

## CC(C)CC1C(=O)OC(Cc2ccccc2)C(=O)N(C)C(CC(C)C)C(=O)OC(C)C(=O)N(C)C(CC(C)C)C(=O)OC(Cc2ccccc2)C(=O)N(C)C(CC(C)C)C(=O)OC(C)C(=O)N1C (stereo not shown) [PF1022 substance]
parasites
  dosage required relative to unigastric animals: 5 to 10 times
[1]; day 0
  Number of eggs per gram of feces (EPG): 112 EPG
[1]; day 1
  Number of eggs per gram of feces (EPG): 80 EPG
[1]; day 3
  Number of eggs per gram of feces (EPG): 34 EPG
[1]; day 5
  Number of eggs per gram of feces (EPG): 41 EPG
[1]; day 7
  Number of eggs per gram of feces (EPG): 49 EPG
[1]; day 10
  Number of eggs per gram of feces (EPG): 36 EPG
[1]; day 14
  Number of eggs per gram of feces (EPG): 40 EPG
[2]; Clark Lubs buffer (pH 2.0)
  solubility at 1 h: < 1 µg/mL
  solubility at 24 h: < 1 µg/mL
[2]; McDougall buffer (pH 6.8)
  solubility at 1 h: < 1 µg/mL
  solubility at 24 h: < 1 µg/mL
[3]
  solubility in water: extremely poor solubility in water
[3]; listed as PF1022 Substance
  solubility in water: practically insoluble or hardly dispersible in water
[4]; day 0
  Number of eggs per gram of feces (EPG): 2997 EPG
[4]; day 1
  Number of eggs per gram of feces (EPG): 2313 EPG
[4]; day 3
  Number of eggs per gram of feces (EPG): 13 EPG
[4]; day 5
  Number of eggs per gram of feces (EPG): 9 EPG
[4]; day 7
  Number of eggs per gram of feces (EPG): 32 EPG
[4]; day 10
  Number of eggs per gram of feces (EPG): 12 EPG
[4]; day 14
  Number of eggs per gram of feces (EPG): 8 EPG
[5]
  anthelmintic effect: particularly marked anthelmintic effect
